Measured values: PubChem BioAssay (NCI)
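These data come from cells grown in 96-well plates and exposed to compound for 48 hours at five concentrations. Definition used: TGI = concentration required for complete inhibition of growth.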

What was measured:
Assay in all cases: DTP human tumour cell line panel, 48 h
[1] = test system: DMS 114 small cell lung
[2] = test system: EKVX NSCLC
[3] = test system: TK-10 renal
[4] = test system: SK-OV-3 ovarian
[5] = test system: UACC-62 melanoma
[6] = test system: SK-MEL-5 melanoma
[7] = test system: MDA-MB-435
[8] = test system: A498 renal
[9] = test system: KM20L2 colon
[10] = test system: HL-60(TB) leukemia
[11] = test system: HOP-18 NSCLC

SMILES | TGI [1] [µM] | TGI [2] [µM] | TGI [3] [µM] | TGI [4] [µM] | TGI [5] [µM] | TGI [6] [µM] | TGI [7] [µM] | TGI [8] [µM] | TGI [9] [µM] | TGI [10] [µM] | TGI [11] [µM]
COC1=C(OC)C(=O)c2cc(C)c(=O)c(C)cc2C1=O | 12.7 | 31.5 | 34 | 41.8 | 27.7 | 29.3 | 3.49 | 40.7 | 40 | 8.9 | 29.9
C(#C[C@@]12CCC[C@@H]1NCO2)c1ccc2c(c1)OCO2 | – | > 100 | > 100 | > 100 | > 100 | > 100 | > 100 | > 100 | – | 68.2 | –
NC(C(=O)O)C(O)c1cnc[nH]1 (configuration not stated) | – | > 100 | > 100 | > 100 | > 100 | > 100 | > 100 | > 100 | – | > 100 | –
N#CC(NNC(=O)c1ccccc1O)c1ccccc1O (configuration not stated) | – | – | > 100 | > 100 | 16.9 | 42.3 | – | – | > 100 | > 100 | > 100
COc1cc(N(CCC#N)CCC#N)ccc1/C(N=Nc1cccc([N+](=O)[O-])c1)=N\NC(=O)c1ccc(C)cc1 | – | 63.1 | > 100 | > 100 | > 100 | > 100 | > 100 | > 100 | – | 49.1 | –
COc1cc(OC)cc(Oc2nc3ccc(C(F)(F)F)cc3nc2-c2ccccc2)c1 | – | > 100 | > 100 | > 100 | > 100 | > 100 | > 100 | > 100 | – | > 100 | –
O=C1C/C(=C\c2ccccc2)C(=O)c2ccccc2N1 | – | 48.5 | 54.7 | 68 | 40.5 | 36.2 | 42.7 | 35.4 | – | 49.2 | –
CC(=O)C1=C(C)N2C(=NC3=C(CCc4ccccc43)C2c2ccc(Cl)cc2)S1 (configuration not stated) | – | > 100 | > 100 | > 100 | > 100 | > 100 | > 100 | 51 | – | 10.9 | –
FC(F)(F)c1ccc2c(c1)nc(Cc1ccc(Cl)cc1)n2CC1CCCN2CCCCC12 (configuration not stated) | – | 23.2 | 24.7 | 24.1 | 10.1 | 15.2 | 24.4 | 27.1 | – | 6.13 | –
O=C1C(CN2CCCC2)CCC1CN1CCCC1 (configuration not stated) | – | > 82.7 | 32.6 | > 100 | 32.9 | 31.9 | 32.9 | > 100 | – | > 100 | –
COc1ccc(Cc2nc3cc(C(F)(F)F)ccc3n2C[C@@H]2CCCN3CCCCC23)cc1 (some centres not stated) | – | 27.7 | 24.2 | 28.4 | 11.5 | 20.3 | 26.8 | 14.1 | – | 19.5 | –
Cn1c2ccccc2n2c3ccccc3c3nnc(N)c-3c12 | – | > 100 | > 100 | > 100 | > 100 | > 100 | > 100 | > 100 | – | > 100 | –
COc1ccc(N(c2ccc(C#N)cc2)c2ccc(C#N)cc2)cc1 | – | > 100 | > 100 | > 100 | > 100 | > 100 | > 100 | > 100 | – | > 100 | –
O=C(O)CN1CCN2CCOCCN(CC1)CCN(CC(=O)O)CC2 | – | > 100 | > 100 | > 100 | > 100 | > 100 | > 100 | > 100 | – | > 100 | –
COC(=O)[C@]1(CCC(C)=O)C(=O)C=CN([C@H](C)c2ccccc2)[C@@H]1Cc1ccc(OC)c(OCc2ccccc2)c1I | – | > 100 | 56.8 | > 100 | 29.2 | 26.9 | 42.9 | 50.1 | – | 69.8 | –
